Reference: publication PMC8524809 (Molecular Therapy, 2021)

What was measured:
[1] = cited from earlier work
in vitro = conditions: human

CC(C)(O)c1ccccc1CC[C@@H](SCC1(CC(=O)O)CC1)c1cccc(/C=C/c2ccc3ccc(Cl)cc3n2)c1 [montelukast]
Side effects / tolerability ([1]; all doses 10 mg/day to 200 mg/day, ref 23 (Altman et al.)): no significant clinical or laboratory side effects
Toxicity tolerance ([1]; high doses (i.e., 200 mg/day)): toxicity tolerance is high
viability (in vitro): 86 to 90%
